Several values for one entry are separate records, joined by “and”; a condition that tells them apart may be missing. Equal entries are not always repeated.
Tests used:
Permeability = assay type: in vitro ADME
Plasma protein binding = assay type: in vitro ADME; conditions: across nonclinical species and humans
CYP2C19 = CYP2C19 (Homo sapiens, UniProt P33261); assay: In vitro drug-drug interaction study, CYP2C19; assay type: in vitro ADME
[1] = In vivo pharmacokinetic studies in rats, dogs and monkeys
[2] = biological target: T1, breast cancer resistance protein (BCRP) (Homo sapiens, UniProt Q9UNQ0); assay: BCRP substrate assessment in vitro; assay type: in vitro ADME
T1 sequence (Q9UNQ0 1-655): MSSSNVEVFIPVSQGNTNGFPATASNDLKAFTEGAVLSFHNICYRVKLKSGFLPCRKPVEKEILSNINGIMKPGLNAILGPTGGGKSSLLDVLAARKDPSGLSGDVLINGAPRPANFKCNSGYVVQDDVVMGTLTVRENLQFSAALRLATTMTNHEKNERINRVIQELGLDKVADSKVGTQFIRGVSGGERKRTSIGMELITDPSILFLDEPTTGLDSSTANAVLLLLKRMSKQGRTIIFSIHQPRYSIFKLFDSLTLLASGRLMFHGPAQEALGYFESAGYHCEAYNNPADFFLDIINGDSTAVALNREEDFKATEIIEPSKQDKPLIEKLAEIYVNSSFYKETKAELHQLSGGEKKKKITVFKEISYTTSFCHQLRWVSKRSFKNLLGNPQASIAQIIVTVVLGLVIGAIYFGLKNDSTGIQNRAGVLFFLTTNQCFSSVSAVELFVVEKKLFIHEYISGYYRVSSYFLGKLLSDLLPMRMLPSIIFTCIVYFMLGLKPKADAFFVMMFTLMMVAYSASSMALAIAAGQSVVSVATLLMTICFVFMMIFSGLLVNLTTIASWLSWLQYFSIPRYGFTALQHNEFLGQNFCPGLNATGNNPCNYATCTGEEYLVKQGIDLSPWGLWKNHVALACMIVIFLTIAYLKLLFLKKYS

BCRP = biological target: T2, BCRP (Homo sapiens, UniProt Q9UNQ0); assay: In vitro drug-drug interaction study, BCRP efflux; assay type: in vitro ADME
T2 sequence (Q9UNQ0 1-655): T1 sequence (Q9UNQ0 1-655)

[3] = Excretion study in bile duct-cannulated (BDC) rats; assay type: in vivo, rat
[4] = Red blood cell partitioning; assay type: in vitro ADME
[5] = Distribution studies in rats; assay type: in vivo, rat
P-glycoprotein (P-gp) = P-glycoprotein (P-gp) (Homo sapiens, UniProt P08183); assay: P-gp substrate assessment in vitro; assay type: in vitro ADME
[6] = test system: TLR agonist (lipopolysaccharide and R848) and IL-1β-induced proinflammatory cytokine production; assay: In vitro cytokine release assays in PBMCs; assay type: cell-based; conditions: R848 and IL-1β stimulation, IL-6, TNF-α, GM-CSF, IL-8
CYP3A4 = CYP3A4 (Homo sapiens, UniProt P08684); assay: In vitro drug-drug interaction study, CYP3A4; assay type: in vitro ADME
[7] = test system: MSU-crystal induced (TLR 2/4-dependent) inflammation; assay: Mouse air pouch model of MSU-crystal induced inflammation; assay type: in vivo; conditions: 3 days twice daily, 30 to 100 mg/kg
[8] = 4-week oral gavage toxicokinetic study with Compound A in dogs (plasma); conditions: dog; for half-life: plasma, dog plasma
Source text: The vehicle was HPBCD (Kleptose Oral Grade HPB) prepared in reverse osmosis water.
Assessment of toxicity was based on mortality, clinical observations, body weights, food consumption, ophthalmic observations, electrocardiographic (ECG) measurements, and clinical and anatomic pathology. Blood samples were collected for toxicokinetic evaluation.

Solubility = assay type: physicochemical
cytochrome P450 (CYP) = assay: In vitro and in vivo metabolism studies; assay type: in vitro ADME
[9] = test system: imiquimod psoriasis model (TLR 7/8-dependent); assay: Imiquimod psoriasis model; assay type: in vivo, mouse
[10] = 4-week oral gavage toxicity study with Compound A in dogs with 2-week recovery; assay type: in vivo; conditions: for Reversal of vacuolated macrophages at recovery sacrifice: 30 or 200/60 mg/kg/dose

P-glycoprotein (P-gp), sequence (P08183 whole entry): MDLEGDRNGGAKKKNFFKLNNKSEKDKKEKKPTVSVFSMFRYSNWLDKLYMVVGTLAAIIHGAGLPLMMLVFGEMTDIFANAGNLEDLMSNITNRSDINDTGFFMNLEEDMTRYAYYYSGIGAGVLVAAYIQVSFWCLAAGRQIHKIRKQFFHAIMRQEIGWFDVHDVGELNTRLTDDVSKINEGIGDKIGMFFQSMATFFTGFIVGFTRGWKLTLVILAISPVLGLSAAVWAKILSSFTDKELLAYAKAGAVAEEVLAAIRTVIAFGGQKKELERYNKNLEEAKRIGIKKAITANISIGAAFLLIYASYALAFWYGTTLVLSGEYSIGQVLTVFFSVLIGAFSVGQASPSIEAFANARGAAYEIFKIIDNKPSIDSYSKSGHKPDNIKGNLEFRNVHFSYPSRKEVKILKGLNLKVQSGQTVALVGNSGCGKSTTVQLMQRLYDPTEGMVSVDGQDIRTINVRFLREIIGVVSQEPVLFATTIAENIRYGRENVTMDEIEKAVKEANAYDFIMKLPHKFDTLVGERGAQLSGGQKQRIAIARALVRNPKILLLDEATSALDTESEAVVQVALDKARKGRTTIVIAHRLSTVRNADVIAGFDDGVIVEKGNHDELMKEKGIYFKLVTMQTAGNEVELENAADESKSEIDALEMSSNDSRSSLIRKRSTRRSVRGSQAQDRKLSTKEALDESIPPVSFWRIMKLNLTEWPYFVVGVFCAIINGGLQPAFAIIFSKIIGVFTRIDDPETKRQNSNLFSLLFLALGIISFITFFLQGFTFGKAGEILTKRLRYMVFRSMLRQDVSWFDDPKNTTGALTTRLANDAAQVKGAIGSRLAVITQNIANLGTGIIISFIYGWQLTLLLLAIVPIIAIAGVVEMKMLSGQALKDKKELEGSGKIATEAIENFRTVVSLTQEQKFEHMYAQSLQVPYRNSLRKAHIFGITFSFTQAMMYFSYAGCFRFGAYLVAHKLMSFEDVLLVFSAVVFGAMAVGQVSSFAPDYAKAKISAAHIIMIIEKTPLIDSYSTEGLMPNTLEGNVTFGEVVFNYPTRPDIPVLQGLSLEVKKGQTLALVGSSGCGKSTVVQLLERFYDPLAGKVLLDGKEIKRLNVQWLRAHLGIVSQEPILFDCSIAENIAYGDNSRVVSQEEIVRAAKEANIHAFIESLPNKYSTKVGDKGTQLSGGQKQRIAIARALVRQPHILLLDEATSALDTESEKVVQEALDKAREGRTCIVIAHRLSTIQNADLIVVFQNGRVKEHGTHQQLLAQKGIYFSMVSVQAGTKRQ
CYP3A4, sequence (P08684 whole entry): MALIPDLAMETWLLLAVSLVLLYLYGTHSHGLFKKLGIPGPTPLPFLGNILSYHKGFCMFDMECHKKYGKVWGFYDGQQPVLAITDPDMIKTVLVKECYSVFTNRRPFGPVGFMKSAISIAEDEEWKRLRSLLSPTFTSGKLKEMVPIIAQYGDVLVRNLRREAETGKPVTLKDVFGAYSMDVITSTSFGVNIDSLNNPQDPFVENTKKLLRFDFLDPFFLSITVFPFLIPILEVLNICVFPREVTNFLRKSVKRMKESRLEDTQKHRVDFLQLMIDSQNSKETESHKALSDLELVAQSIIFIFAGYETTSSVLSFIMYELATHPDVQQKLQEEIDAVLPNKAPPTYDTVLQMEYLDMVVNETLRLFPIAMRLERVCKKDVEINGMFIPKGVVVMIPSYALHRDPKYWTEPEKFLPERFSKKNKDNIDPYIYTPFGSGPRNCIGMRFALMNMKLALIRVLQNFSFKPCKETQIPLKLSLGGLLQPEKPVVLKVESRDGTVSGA
CYP2C19, sequence (P33261 whole entry): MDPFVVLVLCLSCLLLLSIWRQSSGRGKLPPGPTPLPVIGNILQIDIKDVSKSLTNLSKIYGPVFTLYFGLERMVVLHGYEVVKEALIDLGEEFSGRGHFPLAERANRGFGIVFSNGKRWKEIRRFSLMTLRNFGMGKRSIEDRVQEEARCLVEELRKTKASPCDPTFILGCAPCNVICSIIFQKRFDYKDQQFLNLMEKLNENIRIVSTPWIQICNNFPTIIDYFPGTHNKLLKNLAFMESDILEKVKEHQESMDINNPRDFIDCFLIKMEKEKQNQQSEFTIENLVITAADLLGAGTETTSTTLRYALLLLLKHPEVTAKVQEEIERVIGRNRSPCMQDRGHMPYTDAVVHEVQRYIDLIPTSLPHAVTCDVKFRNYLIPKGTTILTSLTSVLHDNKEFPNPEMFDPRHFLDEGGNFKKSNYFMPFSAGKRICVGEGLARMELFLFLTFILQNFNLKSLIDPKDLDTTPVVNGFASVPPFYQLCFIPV

For `Cn1c(=O)n(C2CCC(=O)NC2=O)c2cccc(C#CCOC3CCN(C[C@H]4CC[C@H](n5cc(NC(=O)c6cnn7ccc(N8C[C@H]9C[C@@H]8CO9)nc67)c(C(F)F)n5)CC4)CC3)c21` (stereo partly drawn) [Compound A, 5-((1R,4R)-2-oxa-5-azabicyclo[2.2.1]heptan-5-yl)-N-(3-(difluoromethyl)-1-((1r,4R)-4-((4-((3-(1-(2,6-dioxopiperidin-3-yl)-3-methyl-2-oxo-2,3-dihydro-1H-benzo[d]imidazol-4-yl)prop-2-yn-1-yl)oxy)piperidin-1-yl)methyl)cyclohexyl)-1H-pyrazol-4-yl)pyrazolo[1,5-a]pyrimidine-3-carboxamide], the Permeability (Permeability) was “moderate permeability”, the Plasma protein binding (Plasma protein binding) was “highly bound to plasma proteins” and the “Inhibition of CYP2C19” value (CYP2C19) was “potential time dependent inhibition (TDI)”. For the same compound, the Bioavailability [1] was “low to moderate bioavailability”, the Clearance [1] was “moderate to high clearance” and the Terminal half-life [1] was “moderate terminal half-life”. The “Volume of distribution at steady state” value [1] was “high volume of distribution at steady state”, the BCRP substrate status [2] was “substrate” and the “Inhibition of BCRP efflux” value (BCRP) was “inhibited BCRP efflux”. The “Biliary and intestinal excretion” value [3] was “minor to moderate biliary and intestinal excretion as parent drug”, the Renal clearance [3] was “negligible renal clearance” and the “Partitioning into red blood cells” value [4] was “did not significantly partition into red blood cells”. For the same compound, the CNS penetration [5] was “limited penetration into the central nervous system (CNS)”, the Tissue distribution [5] was “extensively distributed into tissues” and the P-gp substrate status (P-glycoprotein (P-gp)) was “substrate”. The “IC50 (inhibition of proinflammatory cytokine production)” value [6] was “low nM range”, the “Inhibition of CYP3A4” value (CYP3A4) was “potential time dependent inhibition (TDI)” and the “IRAK4 levels in the spleen” value [7] was “significantly reduced IRAK4 levels in the spleen”. For the same compound, the “Inflammatory exudate (neutrophils, IL-1β)” value [7] was “significantly reduced the inflammatory exudate”, the half-life ([8]; beagle, po, 30 mg/kg, t1/2, elimination half-life, N = 1, Day 1, Group 3, Cmpd A 30 mg/kg/dose oral gavage) was 6.54 h and the “Potential accumulation after multiple doses” value ([8]; both, beagle, in vivo) was “up to 2.14 fold”. The “Sex differences in mean Cmax and AUC0-24 values” ([8]; both, beagle, in vivo) was “less than 2 fold”, the “median Tmax” value ([8]; both, beagle, in vivo, po) was 5.00 to 12.0 h and the Tmax ([8]; both, beagle, in vivo, po, 5 mg/kg, Tmax) was 4 h. For the same compound, the Tmax ([8]; both, beagle, in vivo, po, 30 mg/kg, Tmax) was 5 h and 4 h, the Tmax ([8]; both, beagle, in vivo, po, 60 mg/kg, Tmax) was 6 h and the Tmax ([8]; both, beagle, in vivo, po, 60 mg/kg/day, median Tmax) was 6 h. For the same compound, the Tmax ([8]; both, beagle, in vivo, po, 100 mg/kg, Tmax) was 9 h, the Tmax ([8]; both, beagle, in vivo, po, 200 mg/kg, Tmax) was 12 h and the Tmax ([8]; both, beagle, in vivo, po, median Tmax) was 5 to 9 h. The half-life ([8]; both, beagle, po, 5 mg/kg, t1/2, mean elimination half-life, Day 1, Group 2, Cmpd A 5 mg/kg/dose oral gavage) was 7.6 h, the half-life ([8]; both, beagle, po, 5 mg/kg, t1/2, mean elimination half-life, Day 8, Group 2, Cmpd A 5 mg/kg/dose oral gavage) was 8.08 h and the half-life ([8]; both, beagle, po, 5 mg/kg, t1/2, mean elimination half-life, Day 28, Group 2, Cmpd A 5 mg/kg/dose oral gavage) was 8.19 h. For the same compound, the half-life ([8]; both, beagle, po, mean half-life (t1/2), Day 1, range across groups) was 6.54 to 7.6 h, the “Dose proportionality of increases in mean Cmax and AUC0-24” value ([8]; in vivo) was “less than dose proportional” and the Solubility (Solubility) was “low solubility”. The Main metabolizing enzyme (cytochrome P450 (CYP)) was “primarily metabolized by CYP3A4”, the Metabolic pathway (cytochrome P450 (CYP); in vitro and in vivo) was “underwent oxidative metabolism via cytochrome P450 (CYP)” and the “IRAK4 degradation in spleen and skin” value ([9]; mouse, in vivo) was “dose-dependent degradation of IRAK4 in the spleen and skin”. The Skin thickness ([9]; mouse, in vivo) was “reduction in skin thickness”, the “IL-1β in the skin” value ([9]; p<0.0001) was “significant reduction” and the “IL-6 in the skin” value ([9]; p<0.05, 300 mg/kg only) was “significant reduction”. For the same compound, the NOAEL at 4 weeks ([10]; both sexes, beagle, dog, in vivo, dogs, oral gavage once daily, 4 weeks, read-out: no observed adverse effect level (NOAEL)) was 60 mg/kg/day, the “Body weight, body weight gain, food consumption” value ([10]; dog, in vivo) was “No Compound A-related alterations in mean body weight, body weight gain, or food consumption were noted at any dose level” and the “Clinical and ophthalmic observations” value ([10]; dog, in vivo) was “No Compound A-related clinical observations or abnormal ophthalmic observations were noted”. The ECG observation ([10]; dog, in vivo) was “No Compound A-related abnormalities were noted during the dosing phase ECG observation”, the “Hematology, coagulation, clinical chemistry, urinalysis” value ([10]; dog, in vivo) was “No Compound A-related effects in scheduled hematology, coagulation, clinical chemistry, or urinalysis test results were identified” and the “Organ weights and macroscopic observations” value ([10]; dog, in vivo) was “No Compound A-related organ weight differences or macroscopic observations were noted”. For the same compound, the “Microscopic findings (vacuolated macrophages)” value ([10]; dog, in vivo, 30 mg/kg) was “increases of vacuolated macrophages in the small intestine, lymphoid tissues, and lung were considered nonadverse”, the Mortality ([10]; female, beagle, dog, in vivo, 100 mg/kg, 4 day (of dosing phase)) was “One female administered 100 mg/kg/dose was sacrificed in a moribund condition on Day 4 of the dosing phase” and the “Reversal of vacuolated macrophages at recovery sacrifice” value (from here on “Reversal of vacuolated macrophages”) ([10]; mesenteric lymph node) was “lack of reversal after 2 weeks”. The “Reversal of vacuolated macrophages” value ([10]; small intestine, GALT/Peyer's patches, mandibular lymph nodes, lung, 2-week recovery) was “partial reversal” and the “Reversal of vacuolated macrophages” value ([10]; spleen, 2-week recovery) was “complete reversal”.

— patent US12497402B2, “IRAK4 degraders and uses thereof” (priority 2021, dated 2025)
